Data published in patent publication US20120225889A1, “USE OF MACROCYCLIC LACTONE DERIVATIVES FOR THE TREATMENT OF INFLAMMATORY DISORDERS” (PIRAMAL LIFE SCIENCES LIMITED, priority 2010, published 2012).
pIC50: −log10 of the molar value. Like-named read-outs stand apart in the source and are kept apart here.

Assays:
TNF-α = assay: Cytokine release assay in hPBMCs: TNF-α; assay type: cell-based; settings: Homo sapiens
Method: hPBMCs were obtained from healthy donors by centrifugation of heparinized venous blood over Ficoll/Hypaque solution (Histopaque-1077, Sigma, USA). Isolated hPBMCs were suspended in RPMI 1640 culture medium supplemented with 10% FBS and seeded at a density of 50,000 cells/well in a 96-well plate (Nunc, USA). The cells were incubated at 37° C., 5% CO2 for a period of 24 h. These cells were used for the lymphocyte proliferation as well as cytokine release assay.
The plated cells were treated with different concentrations of the test compound (prepared as mM stock in DMSO and diluted with DMSO to achieve the following final concentrations in the assay: 100, 10, 1, 0.1, 0.01, 0.001, 0.0001, 0.00001 and 0.000001 μM) and incubated for 30 min. The cells were then stimulated with PHA (prepared as 1 mg/mL stock in RPMI 1640 culture medium and used at a final concentration of 5 μg/mL). FK506 was used as a standard. The plates were incubated at 37° C., 5% CO2 for 48 h. The cytokines in the supernatant collected were detected using ELISA kit (BD biosciences, USA). The cytokines evaluated in the assay were TNF-α, IL-2, IL-6, and IFN-γ.

IL-1β = assay: Gene expression profile using RTQ-PCR: IL-1β; assay type: cell-based, human; settings: 3 μM
Method: The effect of the compound of example 7 was measured in stimulated untreated cells from the monocytic cell line (THP-1), human monocytes and synovial cells from rheumatoid arthritis patient. The effect of the compound in the THP-1 cell line was measured in terms of gene expression and was expressed as fold changes as compared to the cell stimulated control with no drug treatment.
THP-1 cells, human monocytes and synovial cells were treated with compound of example 7 or vehicle (0.5% DMSO). Total RNA isolation using a commercial RNA extraction kit (Qiagen Corporation, Germany) The first-strand cDNA was synthesized from total RNA using first strand cDNA synthesis kit from Invitrogen Corporation (California, USA). This was followed by real time quantitative polymerase chain reaction (RTQ PCR) using gene specific primers and standard thermal program of initial denaturation at 95° C. for 5 min and cycles of 95° C. for 10 seconds, followed by 60° C. for 30 seconds (Realplex PCR machine from Eppendorf, Germany). Quantitative measurement of products made during PCR cycles was normalized against a housekeeping gene (Actin) and was used to measure the gene expression as fold changes as compared to respective control.

IL-6 = assay: hPBMC membrane-monocyte contact bioassay: IL-6; assay type: cell-based; settings: Homo sapiens, monocytes, 24 h, read-out: inhibition of activated hPBMC mediated IL-6 production
From the text: The assay was designed as in reference, Immunology Letters, 117, 114-118, (2008), the disclosure of which is incorporated by reference for the teaching of the assay. Activated T cell contact-mediated monocyte activation, leading to the production of proinflammatory cytokines (e.g., TNF-α, IL-6), contributes to the pathogenesis of chronic inflammatory diseases including rheumatoid arthritis.
6-well plates (Nunc, USA) were coated with Goat anti-Mouse IgG, Fc (Chemicon, USA) at a concentration of 16.5 μL/mL in coating buffer ([…] NaHCO3, 3.56 g Na2CO3, pH 9.5).
The plates were incubated overnight at 4° C. under sterile conditions. […]
Following incubation, hPBMCs in separate wells of the 6-well plate were harvested, pooled together, and centrifuged. […] The pellet of hPBMC membranes was resuspended in lysis buffer (Sigma, USA) and the protein concentration was determined by the method of Bradford (Sigma, USA).
100 μL monocytes per well at 5×10^5 cells/mL were added to the 96-well plate (Nunc, USA) and cultured for 48 h at 37° C. […] Supernatants were collected after 24 h and TNF-α and IL-6 production was measured using OptiEIA ELISA sets, (BD BioSciences, USA). […]

## C/C=C/C(O)C(C)/C=C/C(=N\O)C(C)C(O)C(C)C1OC(=O)/C(OC)=C/C(C)=C/C(C)C(O)C(CC)C(O)C(C)C/C(C)=C/C=C/C1OC (stereo not shown) [Compound of example 7, (3Z,5E,13E,15E)-18-((5Z,6E,10E)-3,9-Dihydroxy-5-(hydroxymino)-4,8-dimethyldodeca-6,10-dien-2-yl)-9-ethyl-8,10-dihydroxy-3,17-dimethoxy-5,7,11,13-tetramethyl oxacyclooctadeca-3,5,13,15-tetraen-2-one]
TNF-α; Table 3: PHA-PMA induced hPBMC's, 48 h, read-out: TNF-α IC50
  pIC50: 7.70
TNF-α; Table 4: mitogen stimulated production from hPBMC's, read-out: TNF-α (IC50 μM)
  IC50: 0.07 µM
IL-1β; Human monocytes, 3 h, ± SE, N = 3
  IL-1β gene expression: −4.0 log fold change
IL-1β; Synovial cells, 12 h, N = 1
  IL-1β gene expression: −0.3 log fold change
IL-1β; THP-1 cells, 12 h, ± SE, N = 3
  IL-1β gene expression: −0.6 + 0.7 log fold change
IL-6; at 0.3 μM
  inhibition at 0.3 µM: 66%
IL-6; at 0.5 μM
  inhibition at 0.5 µM: 100%
